Data published in ChEMBL document CHEMBL2413072, “Synthesis and in vitro anticancer studies of novel C-2 arylidene congeners of lantadenes” (2013).

Experiments:
Format in all cases: functional
DU-145 = test: Growth inhibition of human DU145 cells by sulforhodamine B assay
NCI-H522 = test: Growth inhibition of human NCI-H522 cells assessed as cell growth at 10^-6 M by sulforhodamine B assay; details: read-out: Activity
Malme-3M = test: Growth inhibition of human MALME-3M cells assessed as cell growth at 10^-6 M by sulforhodamine B assay; details: read-out: Activity
SN12C = test: Growth inhibition of human SN12C cells assessed as cell growth at 10^-4 M by sulforhodamine B assay; details: read-out: Activity
[1] = Growth inhibition of human Hs 578T cells assessed as cell growth at 10^-4 M by sulforhodamine B assay; details: read-out: Activity
MOLT-4 = test: Growth inhibition of human MOLT4 cells assessed as cell growth at 10^-6 M by sulforhodamine B assay; details: read-out: Activity
OVCAR-8 [2] = test: Growth inhibition of human OVCAR8 cells by sulforhodamine B assay
NCI-H322M = test: Growth inhibition of human NCI-H322M cells by sulforhodamine B assay
SK-OV-3 [3] = test: Growth inhibition of human SKOV3 cells by sulforhodamine B assay
LOX IMVI = test: Growth inhibition of human LOXIMVI cells assessed as cell growth at 10^-8 M by sulforhodamine B assay; details: read-out: Activity
SNB-19 [4] = test: Growth inhibition of human SNB19 cells assessed as cell growth at 10^-6 M by sulforhodamine B assay; details: read-out: Activity
UACC-257 [5] = test: Growth inhibition of human UACC257 cells by sulforhodamine B assay
HOP-92 [6] = test: Growth inhibition of human HOP92 cells assessed as cell growth at 10^-8 M by sulforhodamine B assay; details: read-out: Activity
OVCAR-3 = test: Growth inhibition of human OVCAR3 cells assessed as cell growth at 10^-6 M by sulforhodamine B assay; details: read-out: Activity
[7] = Growth inhibition of human HCC2998 cells assessed as cell growth at 10^-4 M by sulforhodamine B assay; details: HCC 2998, read-out: Activity
PC-3 = test: Growth inhibition of human PC3 cells assessed as cell growth at 10^-4 M by sulforhodamine B assay; details: read-out: Activity
SNB-19 [8] = test: Growth inhibition of human SNB19 cells by sulforhodamine B assay
NCI-H460 = test: Growth inhibition of human NCI-H460 cells by sulforhodamine B assay
SK-MEL-2 = test: Growth inhibition of human SK-MEL-2 cells assessed as cell growth at 10^-4 M by sulforhodamine B assay; details: read-out: Activity
RXF 393 = test: Growth inhibition of human RXF393 cells assessed as cell growth at 10^-7 M by sulforhodamine B assay; details: read-out: Activity
A498 = test: Growth inhibition of human A498 cells by sulforhodamine B assay
T47D = test: Growth inhibition of human T47D cells assessed as cell growth at 10^-4 M by sulforhodamine B assay; details: read-out: Activity
SF-268 = test: Growth inhibition of human SF268 cells assessed as cell growth at 10^-8 M by sulforhodamine B assay; details: read-out: Activity
HOP-92 [9] = test: Growth inhibition of human HOP92 cells assessed as cell growth at 10^-7 M by sulforhodamine B assay; details: read-out: Activity
SF-295 = test: Growth inhibition of human SF295 cells assessed as cell growth at 10^-7 M by sulforhodamine B assay; details: read-out: Activity
UACC-257 [10] = test: Growth inhibition of human UACC257 cells assessed as cell growth at 10^-6 M by sulforhodamine B assay; details: read-out: Activity
KM12 = test: Growth inhibition of human KM12 cells by sulforhodamine B assay
OVCAR-5 = test: Growth inhibition of human OVCAR5 cells assessed as cell growth at 10^-8 M by sulforhodamine B assay; details: read-out: Activity
SK-OV-3 [11] = test: Growth inhibition of human SKOV3 cells assessed as cell growth at 10^-7 M by sulforhodamine B assay; details: read-out: Activity
[12] = Growth inhibition of human HCC2998 cells assessed as cell growth at 10^-7 M by sulforhodamine B assay; details: HCC 2998, read-out: Activity
OVCAR-8 [13] = test: Growth inhibition of human OVCAR8 cells assessed as cell growth at 10^-7 M by sulforhodamine B assay; details: read-out: Activity
MDA-MB-231 [14] = test: Growth inhibition of human MDA-MB-231 cells assessed as cell growth at 10^-8 M by sulforhodamine B assay; details: read-out: Activity
HCT-116 = test: Growth inhibition of human HCT116 cells by sulforhodamine B assay
CAKI-1 = test: Growth inhibition of human CAKI-1 cells assessed as cell growth at 10^-4 M by sulforhodamine B assay; details: read-out: Activity
HOP-62 = test: Growth inhibition of human HOP62 cells assessed as cell growth at 10^-4 M by sulforhodamine B assay; details: read-out: Activity
BT-549 = test: Growth inhibition of human BT549 cells assessed as cell growth at 10^-7 M by sulforhodamine B assay; details: read-out: Activity
MDA-MB-231 [15] = test: Growth inhibition of human MDA-MB-231 cells assessed as cell growth at 10^-4 M by sulforhodamine B assay; details: read-out: Activity
SK-MEL-28 = test: Growth inhibition of human SK-MEL-28 cells assessed as cell growth at 10^-6 M by sulforhodamine B assay; details: read-out: Activity
[16] = read-out: LC50 (the source's name)
[17] = read-out: pLC50 (the source's name) (converted)

CC(C)=CC(=O)O[C@@H]1CC(C)(C)C[C@H]2C3=CC[C@@H]4[C@@]5(C)CCC(=O)C(C)(C)[C@@H]5CC[C@@]4(C)[C@]3(C)CC[C@@]12C(=O)O
GI50 (DU-145; read-out: GI50): 5.12 µM
CC50 (DU-145; [16]): 98.3 µM
TGI (DU-145; read-out: TGI): 25.1 µM
GI50 (DU-145; read-out: pGI50 (converted)): 5.13 µM
CC50 (DU-145; [17]): 97.7 µM
TGI (DU-145; read-out: pTGI (converted)): 25.1 µM
growth at 1 µM (NCI-H522): 82%
growth at 1 µM (Malme-3M): 91%
growth at 100 µM (SN12C): -38%
growth at 100 µM [1]: -10%
growth at 1 µM (MOLT-4): 85%
GI50 (OVCAR-8 [2]; read-out: GI50): 3.81 µM
CC50 (OVCAR-8 [2]; [16]): > 100 µM
TGI (OVCAR-8 [2]; read-out: TGI): > 100 µM
GI50 (OVCAR-8 [2]; read-out: pGI50 (converted)): 3.8 µM
CC50 (OVCAR-8 [2]; [17]): > 100 µM
TGI (OVCAR-8 [2]; read-out: pTGI (converted)): > 100 µM
GI50 (NCI-H322M; read-out: GI50): 2.87 µM
LC50 (50% lethal concentration) (NCI-H322M; read-out: LC50): > 100 µM
TGI (NCI-H322M; read-out: TGI): 19.9 µM
GI50 (NCI-H322M; read-out: pGI50 (converted)): 2.88 µM
LC50 (50% lethal concentration) (NCI-H322M; read-out: pLC50 (converted)): > 100 µM
TGI (NCI-H322M; read-out: pTGI (converted)): 20 µM
GI50 (SK-OV-3 [3]; read-out: GI50): 16.6 µM
CC50 (SK-OV-3 [3]; [16]): > 100 µM
TGI (SK-OV-3 [3]; read-out: TGI): > 100 µM
GI50 (SK-OV-3 [3]; read-out: pGI50 (converted)): 16.6 µM
CC50 (SK-OV-3 [3]; [17]): > 100 µM
TGI (SK-OV-3 [3]; read-out: pTGI (converted)): > 100 µM
growth at 0.01 µM (LOX IMVI): 98%
growth at 1 µM (SNB-19 [4]): 87%
GI50 (UACC-257 [5]; read-out: GI50): 4.98 µM
CC50 (UACC-257 [5]; [16]): > 100 µM
TGI (UACC-257 [5]; read-out: TGI): 50.6 µM
GI50 (UACC-257 [5]; read-out: pGI50 (converted)): 5.01 µM
CC50 (UACC-257 [5]; [17]): > 100 µM
TGI (UACC-257 [5]; read-out: pTGI (converted)): 50.1 µM
growth at 0.01 µM (HOP-92 [6]): 97%
growth at 1 µM (OVCAR-3): 84%
growth at 100 µM [7]: -68%
growth at 100 µM (PC-3): -1%
GI50 (SNB-19 [8]; read-out: GI50): 4.25 µM
CC50 (SNB-19 [8]; [16]): > 100 µM
TGI (SNB-19 [8]; read-out: TGI): > 100 µM
GI50 (SNB-19 [8]; read-out: pGI50 (converted)): 4.27 µM
CC50 (SNB-19 [8]; [17]): > 100 µM
TGI (SNB-19 [8]; read-out: pTGI (converted)): > 100 µM
GI50 (NCI-H460; read-out: GI50): 2.21 µM
LC50 (NCI-H460; read-out: LC50): 85.5 µM
TGI (NCI-H460; read-out: TGI): 14.6 µM
GI50 (NCI-H460; read-out: pGI50 (converted)): 2.19 µM
LC50 (NCI-H460; read-out: pLC50 (converted)): 85.1 µM
TGI (NCI-H460; read-out: pTGI (converted)): 14.5 µM
growth at 100 µM (SK-MEL-2): -69%
growth at 0.1 µM (RXF 393): 94%
GI50 (A498; read-out: GI50): 1.59 µM
CC50 (A498; [16]): > 100 µM
TGI (A498; read-out: TGI): 14.2 µM
GI50 (A498; read-out: pGI50 (converted)): 1.58 µM
CC50 (A498; [17]): > 100 µM
TGI (A498; read-out: pTGI (converted)): 14.1 µM
growth at 100 µM (T47D): 23%
growth at 0.01 µM (SF-268): 96%
growth at 0.1 µM (HOP-92 [9]): 90%
growth at 0.1 µM (SF-295): 83%
growth at 1 µM (UACC-257 [10]): 83%
GI50 (KM12; read-out: GI50): 0.879 µM
LC50 (50% net cell kill) (KM12; read-out: LC50): 59.3 µM
TGI (KM12; read-out: TGI): 15.3 µM
GI50 (KM12; read-out: pGI50 (converted)): 0.871 µM
LC50 (50% net cell kill) (KM12; read-out: pLC50 (converted)): 58.9 µM
TGI (KM12; read-out: pTGI (converted)): 15.5 µM
growth at 0.01 µM (OVCAR-5): 94%
growth at 0.1 µM (SK-OV-3 [11]): 106%
growth at 0.1 µM [12]: 96%
growth at 0.1 µM (OVCAR-8 [13]): 96%
growth at 0.01 µM (MDA-MB-231 [14]): 96%
GI50 (HCT-116; read-out: GI50): 2.35 µM
LC50 (HCT-116; read-out: LC50): > 100 µM
TGI (HCT-116; read-out: TGI): 53.5 µM
GI50 (HCT-116; read-out: pGI50 (converted)): 2.34 µM
LC50 (HCT-116; read-out: pLC50 (converted)): > 100 µM
TGI (HCT-116; read-out: pTGI (converted)): 53.7 µM
growth at 100 µM (CAKI-1): -2%
growth at 100 µM (HOP-62): -21%
growth at 0.1 µM (BT-549): 109%
growth at 100 µM (MDA-MB-231 [15]): -64%
growth at 1 µM (SK-MEL-28): 103%
